Marks after values point to notes of the source that are not given here.
What was measured:
LPS induced lung injury = experiment: LPS induced lung injury, bronchoalveolar lavage; assay type: in vivo; details: mice, 6 h after LPS, n = 20
Protocol: Male C57Bl/6 Mice (Charles River, Germany) were kept at the animal facility of the Medical University of Vienna, feed with standard diet and water was provided ad libitum. All interventions were performed according to the guide lines of AAALAC (Association for Assessment and Accreditation of Laboratory Animal Care). All experiment were approved by the Ethic committee of the Medical University of Vienna. Mice were anesthetized with isoflouran and treated with 100 ng of LPS (E. coli O55:B5, Sigma Aldrich) intranasally. XIB1-a or XIB1-b was applied either intra-peritoneally (2×2 mg/kg) or via inhalation (2×4 mg/kg), first application was performed concomitantly with LPS administration, the second application was performed 1 h after the LPS inhalation.
The trachea was exposed through a midline incision and canulated with a sterile 20-gauge catheter (BD Venflon™, Becton Dickinson Infusion Therapy, Helsingborg, Sweden). Bilateral broncho-alveolar lavage fluid (BALF) was gained by instilling two 0.5 ml aliquots of sterile saline. Approximately 0.9-1 ml BALF was retrieved per mouse. Total cell numbers were counted from each sample using a hemo-cytometer (Türck chamber), BALF differential cell counts were done on cytospin preparations stained with Giemsa. For protein measurements, BALF was diluted 1:2 in buffer containing 300 mM NaCl, 30 mM Tris, 2 mM MgCl2, 2 mM CaCl2, and Pepstatin A, Leupeptin and Aprotinin (all 20 ng/ml; pH 7.4). Protein levels in BALF were measured using the BCA protein kit according to the manufacturer's instructions (Pierce, Rockford, Ill.).
In addition, the same set-up as described above was used for comparing the impact of XIB1-b compared to Bβ15-42 (PLoS ONE (2009), 4(4): e5391), a peptide derived from fibrin having the sequence […] (SEQ ID NO: 41). Bβ15-42 was added in the same manner as XIB1-b. Again, protein content and cell count of BALF was measured.

[1] = system: Ventilator-Induced Lung Injury (VILI); experiment: Ventilator-induced lung injury (VILI) after LPS pre-challenge; assay type: in vivo; details: mice, LPS + high tidal volume ventilation (LPS-HTV); i.v. 4 mg/kg loading, then 1 mg/kg/h
Protocol: Experiments were performed with healthy C57BL/6 (aged 8-10 weeks, with weights ranging from 19-25 g). All interventions were performed according to the guide lines of AAALAC. All experiment were approved by the Ethic committee of the University of Amsterdam.
Mice were challenged with LPS (dosage: 50 μg per mouse) (or saline), via intranasal injection 2 h before initiation of mechanical ventilation, to induce lung injury.
XIB1-1b (or random peptide) was administered i.v. 10 min before start of mechanical ventilation (dosage: 4 mg/kg loading dose, followed administration i.v. injections 1 mg/kg/h.
A Y-tube connector with 1.0 mm outer diameter and 0.6 mm inner diameter was surgically inserted into the trachea under general anesthesia. Mice were placed in a supine position and connected to a ventilator. Mice were pressure-controlled ventilated with either an inspiratory pressure of 10 cm H2O (resulting in VT˜7.5 mL/kg; low VT, LVT) or an inspiratory pressure of 18 cm H2O (resulting in VT˜15 mL/kg; high VT, HVT). Positive end-expiratory pressure (PEEP) is set at 2 cm H2O with both MV-strategies. The fraction of inspired oxygen was kept at 0.5 throughout the experiment. The inspiration to expiration ratio was kept at 1:1 throughout the experiment.
BALF was obtained by instilling 3 times 0.5 mL aliquots of saline by a 22-gauge Abbocath-T catheter (Abbott, Sligo, Ireland) into the trachea. Approximately, 1.0 mL of BALF was retrieved per mouse and cell counts were determined using a hemacytometer (Beckman Coulter, Fullerton, Calif.). Subsequently, differential counts were done on cytospin preparations stained with a modified Giemsa stain, Diff-Quick (Dade Behring AG, Düdingen, Switzerland). Supernatant was stored at −80° C.
Total protein levels in BALF are determined using a Bradford Protein Assay Kit (OZ Biosciences, Marseille, France) according to manufacturers' instructions with bovine serum albumin as standard. Mouse IgM was determined by ELISA by using anti-Mouse IgM sensitized 96-strip micro-well plates according to manufacturers' instructions (IMMUNO-TEK kit from ZeptoMetrix).

Sequence	albumine content of BALFs (mean +/ SD) (LPS induced lung injury; comparison with Bβ15-42 (Table 6), intraperitoneal application) [µg/mL]	counts of neutrophils in the BALF (mean +/ SD) (LPS induced lung injury; comparison with Bβ15-42 (Table 6), intratracheal plus intraperitoneal application)	albumine content of BALFs (mean +/ SD) (LPS induced lung injury; comparison with Bβ15-42 (Table 6, last section), intraperitoneal application as printed) [µg/mL]	IgM content in the BALF [1]	neutrophil count in the BALF [1]	total cell count in the BALF [1]	total protein content in the BALF [1]
GHRPLDKKKREEAPSLRPAPPPISGGGYR (/note=“Description of artificial sequence peptide Bbeta 15-42”) [Bβ15-42, a peptide derived from fibrin]	160 ± 20	35 +/− 10 neutrophils/ml (× 10^3)	152 ± 35				
GGGGGSRRIPL (/note=“Description of artificial sequence variable insert”) [scrambled peptide, scrambled peptide control in the VILI experiment, reference compound]				No improvement	No improvement	No improvement	No improvement

From patent US9012403B2, “Peptides as active agents to stabilize biological barriers” (XiberScience GmbH, priority 2010, dated 2015)
